In patent US8101158B1, “Methods for treating cerebrovascular disease comprising administering an agent that inhibits prokineticin receptor activity” (The Regents of the University of California, priority 2007, dated 2012):
“Also recorded” adds a separate entry of the source.

What was measured:
[1] = tested on: PK2 mRNA; experiment: PK2 mRNA in situ hybridization in PTZ seizure model; type: in vivo, mice; details: data not shown
Experimental: (§1) All injections were administered through intraperitoneal injections (i.p.) Pilocarpine: to reduce muscarinic peripheral effects, all animals injected with pilocarpine were given 2 mg/kg of methylscopolamine (dissolved in saline 0.4 mg/ml) 30 minutes prior to injection. Pilocarpine-induced seizure was then initiated by injecting littermate mice (C57BL-6 or mix C57BL-6 with CD1) i.p. with (200 or 400 mg/kg) pilocarpine, respectively. Thereafter, animals were then assessed for seizure, as describe above, and sacrificed according to the following time course (30, 1 hr, 3 hrs, 6 hrs, 12 hrs, 36 hrs, 72 hrs). For groups within the pentylenetetrazol (metrazol, PTZ), mice were administered 75 mg/kg PTZ and subsequently monitored for 20 minutes. PTZ kindling were accomplished by administering 45 mg/kg PTZ every other day for 14 days. […] Each animal was injected and monitored for S5 seizure. […]
(§2) In situ hybridization was done according to Cheng et al 2001. […] Sections were then cut at 20-μm and processed for in situ as described by Winzer-Serhan et al. mRNA distributions from autoradiograms and emulsion-dipped sections were then analyzed and quantified with a system called MCID (Imaging Research). Calibration curve was generated by optical density versus radioactivity (disintegrations per minute (d.p.m.) per mg tissue wet weight) using 14 C standards. […]

[2] = biological target: T1, PKR2 (Homo sapiens, UniProt Q8NFJ6); experiment: Antagonism of PK2-induced calcium influx (luminescence) in CHO cells stably expressing PKR2; type: cell-based; details: luminescence (RLU), read-out: inhibition constant (Ki) for blocking activation of PKR2 by PK2
T1 construct: expressed in transfected cells
T1 sequence (Q8NFJ6 whole entry): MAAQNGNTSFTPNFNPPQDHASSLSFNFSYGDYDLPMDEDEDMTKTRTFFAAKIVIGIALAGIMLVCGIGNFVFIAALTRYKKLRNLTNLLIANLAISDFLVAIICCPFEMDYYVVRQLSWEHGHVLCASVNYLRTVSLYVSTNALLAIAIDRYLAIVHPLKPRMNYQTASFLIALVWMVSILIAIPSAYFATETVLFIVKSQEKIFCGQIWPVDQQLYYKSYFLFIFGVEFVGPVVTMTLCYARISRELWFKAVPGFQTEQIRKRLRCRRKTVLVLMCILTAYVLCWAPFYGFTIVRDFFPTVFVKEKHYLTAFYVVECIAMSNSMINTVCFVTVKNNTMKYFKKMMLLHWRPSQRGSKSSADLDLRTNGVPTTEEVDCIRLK
Experimental: FIG. 4 is a graphical representation showing the antagonistic effect of Compound I in Chinese Hamster Ovary cells that stably express PKR2. Dose-dependent response of PKR2 activation by PK2 in the presence of different concentrations of Compound I was measured with a luminometer. RLU is an index for calcium influx measurement for this luminescence-based assay. The dose-dependent calcium influx activated by PK2 was antagonized by Compound I. The inhibition constant obtained from this experiment was approximately 15 nM.
(§3) Via custom synthesis, 10 grams of one of the morpholine carboximide derivatives was obtained, with chemical name of (±)-4-Benzyl-N-(3,4-dihydro-2H-1,5-benzodioxepin-7-ylmethyl)-N-isobutylmorpholine-2-carboxamide, compound I (FIG. 5). Compound I was tested using the in vitro ischemia model. […] We utilized compound I as a parent compound to test the potential therapeutic effect of blocking PKR2 in cerebral ischemia models.

[3] = Pharmacokinetic study, brain concentration; type: in vivo; details: intraperitoneal injection of 60 mg/kg in rats
Experimental: as §3

[4] = tested on: brain infarct in experimental stroke model; experiment: Experimental stroke model, infarct volume after i.p. compound I; type: in vivo, rats; details: 50 mg/kg i.p., 30 minutes pre-ischemia; n=5, p<0.05; listed as compound I
Experimental: TTC staining and infarct quantification was performed as follows. 24 hours after reperfusion, rats were perfused with ice cold PBS and the brain was sectioned into 2 mm thickness. Brain sections were stained in 2,3,5 triphenyl tetrazolium chloride (TTC) solution for 15 minutes or until infarct was visible, followed by fixation with 4% PFA overnight. Next day the brain sections were aligned from rostral to caudal and brain sections were scanned. Infarct size and volume was quantitated using the software Image J. Infarct and cortex was outlined and measured using Image J. Percent infarct represents infarct area over entire cortex area. Percent volume was measured by multiplying the area by the section thickness (2 mm). Compound I reduced infarct size in ischemia models. The effect of compound I in experimental stroke models was tested. […] Compound I-treated rats had smaller infarct at almost every level.

[5] = tested on: PK2 mRNA; experiment: PK2 mRNA in situ hybridization after pilocarpine-induced seizure; type: in vivo, mice; details: CeA; for PK2 mRNA induction after pilocarpine in diazepam-pretreated animals: CA3 and dentate gyrus, diazepam prior to pilocarpine
Experimental: All injections were administered through intraperitoneal injections (i.p.) Pilocarpine: to reduce muscarinic peripheral effects, all animals injected with pilocarpine were given 2 mg/kg of methylscopolamine (dissolved in saline 0.4 mg/ml) 30 minutes prior to injection. Pilocarpine-induced seizure was then initiated by injecting littermate mice (C57BL-6 or mix C57BL-6 with CD1) i.p. with (200 or 400 mg/kg) pilocarpine, respectively. Thereafter, animals were then assessed for seizure, as describe above, and sacrificed according to the following time course (30, 1 hr, 3 hrs, 6 hrs, 12 hrs, 36 hrs, 72 hrs). For groups within the pentylenetetrazol (metrazol, PTZ), mice were administered 75 mg/kg PTZ and subsequently monitored for 20 minutes. PTZ kindling were accomplished by administering 45 mg/kg PTZ every other day for 14 days. Animals that reach S5 on the first day were not included in the experiments. Each animal was injected and monitored for S5 seizure. Once S5 is reached, the animal was considered kindled, and was taken out of the injection regimen.
as §2, with “2001. Antisense and sense riboprobes containing the 3′ UTR of mouse PK2 (GenBank accession number AF487279; residues 1147-2211), PKR1 (3′ UTR) and PKR2 (3′ UTR) were generated.” for “2001.”
A time course analysis for PK2 mRNA induction and upregulation in the pilocarpine-induced seizure model was performed. A total of seven time points (30 minutes, 1 hr, 3 hrs, 6 hrs, 12 hrs, 36 hrs, and 72 hrs post pilocarpine injection) were analyzed. […]

[6] = tested on: PKR2 mRNA; experiment: PKR2 mRNA in situ hybridization after pilocarpine-induced seizure; type: in vivo, mice
Experimental: as §1, §2

[7] = tested on: brain infarct after distal MCAO; experiment: Distal MCAO experimental stroke with ICV delivery of PK2, TTC infarct quantitation; type: in vivo, rats; details: PK2 0.3 nmol ICV within one hour after reperfusion, 24 hr, n=5, p<0.001
Experimental: Distal Middle Cerebral Artery Occlusion (dMCAO) was performed in the PK2 intracerebroventricular […] infusion study. Anesthesia induced by 5% isoflurane and maintained by 2-3% isoflurane. A ventral midline incision was made, and the two CCAs were isolated. […] were placed around the CCAs, and the animal was placed on its right side. A 2-cm vertical scalp incision was made midway between the left eye and ear. The temporalis muscle was bisected and a 2-mm burr hole was made at the junction of the zygomatic arch and squamous bone to expose the distal MCA. The dura was cut and the distal MCA was permanently electro-cauterized. The CCA were then occluded with clips for 1 hour, and the animals were sacrificed and perfused after 24 hr. PK2 (0.3 nmol) was stereotaxically infused prior or post-ischemia. […] Body temperature, ECG, and respiration rate were monitored every 15 minutes and kept in physiological ranges. […] TTC staining and infarct quantification was performed as follows. […] Infarct size and volume was quantitated using the software Image J. Infarct and cortex was outlined and measured using Image J. Percent infarct represents infarct area over entire cortex area. Percent volume was measured by multiplying the area by the section thickness (2 mm). […] FIGS. 2B and C are graphs showing quantitation of infarct volume. […]

[8] = tested on: GABA (α1β1γ2) currents in oocytes with PKR2; experiment: GABA-evoked currents in Xenopus oocytes, two-electrode voltage clamp; type: cell-based, Xenopus laevis; details: GABA 10 uM; PK2 10 nM-30 nM; over 60 min; holding potential -70 mV
Experimental: FIG. 13 is a series of graphical representations showing PK2-induced reduction of GABA (α1β1γ2) currents. […] GABA (10 uM) evoked GABA currents without PK2 show no appreciable reduction over a 70 min course. Addition of PK2 (10 nM-30 nM) decreased GABA-evoked current over a period of 60 min. FIG. 13B is a graphical representation showing the average percent reduction of normalized GABA-evoked currents after addition of PK2. […] One-way Anova with post-Dunnet correction indicates (p<0.05) across all time points when compared to normalized base.
Multiple studies have found a complex system of inhibition, disinhibition, and various physiological consequences, depending on the circuitry and subtypes involved; all of which have important consequences in epileptogenesis. The role of PK2 and GABAA receptor, especially with the αβγ-GABAA which are found in the amygdale was investigated. […]. To do this study, a mixture of RNA containing α1β1γ2S with or without PKR2 was injected into Xenopus oocytes. GABA currents were then measured using the two-electrode voltage clamp with a holding potential of −70 mV, 4-6 days post injection. Repeated exposure (every 10 mins) with GABA (10 μM) to Xenopus oocytes (αβγ-GABAA or […] containing) induced a reproducible and stable current over a long-term recording (>1 hr).

[9] = tested on: locomotor running wheel activity; details: PK2 0.3 nmol; cited from earlier work

Molecule: C1CCc2nnnn2CC1 [PTZ, Pentylenetetrazol]
- PK2 mRNA induction in PTZ seizure model [1]: only a modest upregulation of PK2 mRNA at the medial nucleus of the amygdale

Molecule: CC(C)CN(Cc1ccc2c(c1)OCCCO2)C(=O)C1CN(Cc2ccccc2)CCO1 (racemic) [Compound I, (±)-4-Benzyl-N-(3,4-dihydro-2H-1,5-benzodioxepin-7-ylmethyl)-N-isobutylmorpholine-2-carboxamide]
- Ki [2]: ~15 nM
- brain concentration [3]: significant brain concentration
- infarct volume versus vehicle PEG400 [4]: significantly reduced infarct volume

Molecule: CC[C@@H]1C(=O)OC[C@@H]1Cc1cncn1C [pilocarpine]
- peak PK2 mRNA induction over basal level ([5]; 6 hr post pilocarpine injection): over 100 fold
- peak PKR2 mRNA induction over basal level ([6]; CA1/CA2, 6 hr post pilocarpine injection): about 7 fold

Molecule: CN1C(=O)CN=C(c2ccccc2)c2cc(Cl)ccc21 [Diazepam, diazepam]
- PK2 mRNA induction after pilocarpine in diazepam-pretreated animals [5]: eliminated induction; also recorded: blocks induction of PK2
- PK2 mRNA induction after pilocarpine in diazepam-pretreated animals ([5]; listed as diazepam): completely abolished
- PKR2 mRNA induction after pilocarpine with diazepam ([6]; seizure activity blocked with diazepam): eliminated induction

B1: PK2: secreted peptide ligand of G-protein coupled receptors PKR1 and PKR2 (protein, UniProt Q9HC23 28-129, looked up)
Prokineticin-2: AVITGACDKDSQCGGGMCCAVSIWVKSIRICTPMGKLGDSCHPLTRKNNFGNGRQERRKRKRSKRKKEVPFFGRRMHHTCPCLPGLACLRTSFNRFICLAQK
- infarct volume versus saline [7]: significantly increased overall average infarct volume
- maximum inhibition of GABA-evoked currents [8]: 75 % of normalized baseline
- duration of inhibitory response in locomotor running wheel activity [9]: 3 to 5 h
